{"source": "patent US20240226049A1", "about": "“METHODS OF TREATMENT USING BEMPEDOIC ACID” (Esperion Therapeutics, Inc., priority 2023, published 2024)", "tested_on": "primary prevention patients unable to tolerate recommended doses of statins", "assay": "CLEAR OUTCOMES primary prevention subgroup (Example 2): time-to-event efficacy end points", "format": "in vivo, human", "procedure": "The rationale, design and methods of the CLEAR Outcomes trial is described in Example 1. The trial was conducted at 1250 sites in 32 countries and designed by the Cleveland Clinic Coordinating Center for Clinical Research (C5Research) and an academic Executive Committee in collaboration with the sponsor. The protocol was approved by ethics committees at participating sites and all patients provided written informed consent before enrollment. A contract research organization collected the data which were transferred to C5Research at completion of the trial whose statisticians conducted the analyses described herein. An independent Data Monitoring Committee monitored the trial.\nPrimary prevention patients 18 to 85 years of age with an LDL cholesterol ≥100 mg/dL with clinical features placing them at high risk for a first cardiovascular event were eligible. Criteria for high cardiovascular risk included risk scores, such as the Reynolds Risk Score and the SCORE project (Ridker et al., Development and validation of improved algorithms for the assessment of global cardiovascular risk in women: the Reynolds Risk Score, JAMA. 2007 Feb. 14; 297(6):611-9; Ridker et al., C-reactive protein and parental history improve global cardiovascular risk prediction. The Reynolds Risk Score for men, Circulation. 2008; 118: 2243-2251; European Guidelines on CVD Prevention in Clinical Practice. 2016. Eur J Prev Cardiol. 2016 July; 23(11):NP1-NP96), a coronary artery calcium score >400 Agatston units (AU) or presence of either type 1 or 2 diabetes in women aged >65 years or men older than 60 years.\nInvestigators were responsible for assessing the patient for statin intolerance. Patients had to report statin intolerance due to an adverse effect that started or increased during statin therapy and resolved or improved after statin therapy was discontinued. Entry criteria required inability to tolerate 2 or more statins at any dose or 1 statin and unwillingness to attempt a second statin or advised by a physician not to attempt taking a second statin. Both the patient and site investigator were required to provide written confirmation that the patient was statin intolerant and aware of the benefits of statins to reduce the risk of cardiovascular events, including death, and acknowledge that many patients who are unable to tolerate a statin can tolerate a different statin or dose. Patients could be enrolled if they tolerated a very low average daily statin dose defined as rosuvastatin <5 mg, atorvastatin <10 mg, simvastatin <10 mg, lovastatin <20 mg, pravastatin <40 mg, fluvastatin <40 mg, or pitavastatin <2 mg. Other background lipid-lowering therapies were permitted, including ezetimibe, niacin, bile acid resins, fibrates, and/or proprotein convertase subtilisin kexin type 9 (PCSK9) inhibitors.\nEligible patients entered a 4-week run-in period during which patients were treated with single-blind placebo. If patients were intolerant to placebo treatment or if adherence was <80% by tablet count, they were not eligible for randomization. Patients who successfully completed the run-in period were randomly assigned in a 1:1 ratio to receive a 180 mg oral dose of bempedoic acid or matching placebo, administered daily. During the trial, LDL cholesterol and hsCRP results were masked. Beginning 6 months after randomization, the central laboratory notified the investigator, who remained blinded to treatment assignment, if the patient's LDL cholesterol level was ≥25% higher than baseline. Repeat testing was performed after the patient was counseled about diet and encouraged to take all medications as prescribed. The patient returned for a repeat fasting blood lipid profile to confirm whether the LDL cholesterol value exceeded the threshold criteria. If confirmed, the patient's treatment regimen for LDL cholesterol lowering could be adjusted, per standard of care and local practice. […]", "key": {"[1]": {"settings": "primary prevention patients, 180 mg oral daily, N = 2100"}, "[2]": {"settings": "vs placebo, primary prevention, adjusted for baseline characteristics"}, "[3]": {"settings": "vs placebo, primary prevention, adjusted for baseline characteristics, listed as bempedoic acid"}, "[4]": {"settings": "vs placebo, primary prevention, unadjusted"}}, "note": "Several values for one entry are separate records, joined by “and”; a condition that tells them apart may be missing. Equal entries are not always repeated.", "data": [{"smiles": "CC(C)(CCCCCC(O)CCCCCC(C)(C)C(=O)O)C(=O)O", "note": "[Bempedoic Acid, Bempedoic acid]", "values": [{"measurement": "3-component MACE, % of patients", "setting": "[1]", "value": 4.0, "unit": "%"}, {"measurement": "3-component MACE, number of patients", "setting": "[1]", "value": "83 number of patients"}, {"measurement": "5-component MACE, % of patients", "setting": "[1]", "value": 5.3, "unit": "%"}, {"measurement": "5-component MACE, number of patients", "setting": "[1]", "value": "112 number of patients"}, {"measurement": "All-cause mortality, % of patients", "setting": "[1]", "value": 3.6, "unit": "%"}, {"measurement": "All-cause mortality, number of patients", "setting": "[1]", "value": "75 number of patients"}, {"measurement": "Cardiovascular death, % of patients", "setting": "[1]", "value": 1.8, "unit": "%"}, {"measurement": "Cardiovascular death, number of patients", "setting": "[1]", "value": "37 number of patients"}, {"measurement": "Coronary revascularization, % of patients", "setting": "[1]", "value": 2.4, "unit": "%"}, {"measurement": "Coronary revascularization, number of patients", "setting": "[1]", "value": "50 number of patients"}, {"measurement": "Fatal and non-fatal MI, % of patients", "setting": "[1]", "value": 1.4, "unit": "%"}, {"measurement": "Fatal and non-fatal MI, number of patients", "setting": "[1]", "value": "29 number of patients"}, {"measurement": "Fatal and non-fatal stroke, % of patients", "setting": "[1]", "value": 1.3, "unit": "%"}, {"measurement": "Fatal and non-fatal stroke, number of patients", "setting": "[1]", "value": "27 number of patients"}, {"measurement": "Hospitalization for unstable angina, % of patients", "setting": "[1]", "value": 0.5, "unit": "%"}, {"measurement": "Hospitalization for unstable angina, number of patients", "setting": "[1]", "value": "10 number of patients"}, {"measurement": "Primary efficacy endpoint (MACE-4), % of patients", "setting": "[1]", "value": 5.3, "unit": "%"}, {"measurement": "Primary efficacy endpoint (MACE-4), number of patients", "setting": "[1]", "value": "111 number of patients"}, {"measurement": "number need to treat (NNT) to prevent one primary composite outcome", "setting": "primary prevention patients, 4-component MACE", "value": 43, "unit": "patients"}, {"measurement": "effect on stroke and coronary revascularization", "setting": "primary prevention patients, vs placebo", "value": "not significantly reduced"}, {"measurement": "3-component MACE, Hazard Ratio (95% CI), adjusted", "setting": "[2]", "value": "0.64 (0.48-0.84)"}, {"measurement": "5-component MACE, Hazard Ratio (95% CI), adjusted", "setting": "[2]", "value": "0.69 (0.54-0.88)"}, {"measurement": "All-cause mortality, Hazard Ratio (95% CI), adjusted", "setting": "[2]", "value": "0.73 (0.54-0.98)"}, {"measurement": "Cardiovascular death, Hazard Ratio (95% CI), adjusted", "setting": "[2]", "value": "0.61 (0.41-0.92)"}, {"measurement": "Coronary revascularization, Hazard Ratio (95% CI), adjusted", "setting": "[2]", "value": "0.71 and 0.71 (0.49-1.03)"}, {"measurement": "Fatal and non-fatal MI, Hazard Ratio (95% CI), adjusted", "setting": "[2]", "value": "0.61 (0.39-0.98)"}, {"measurement": "Fatal and non-fatal stroke, Hazard Ratio (95% CI), adjusted", "setting": "[2]", "value": "0.76 (0.46-1.26)"}, {"measurement": "Hospitalization for unstable angina, Hazard Ratio (95% CI), adjusted", "setting": "[2]", "value": "0.58 (0.26-1.27)"}, {"measurement": "Primary efficacy endpoint (MACE-4), Hazard Ratio (95% CI), adjusted", "setting": "[2]", "value": "0.70 (0.55-0.89)"}, {"measurement": "3-component MACE, Hazard Ratio (95% CI), adjusted", "setting": "[3]", "value": 0.64}, {"measurement": "5-component MACE, Hazard Ratio (95% CI), adjusted", "setting": "[3]", "value": 0.69}, {"measurement": "All-cause mortality, Hazard Ratio (95% CI), adjusted", "setting": "[3]", "value": 0.73}, {"measurement": "Cardiovascular death, Hazard Ratio (95% CI), adjusted", "setting": "[3]", "value": 0.61}, {"measurement": "Fatal and non-fatal MI, Hazard Ratio (95% CI), adjusted", "setting": "[3]", "value": 0.61}, {"measurement": "Fatal and non-fatal stroke, Hazard Ratio (95% CI), adjusted", "setting": "[3]", "value": 0.76}, {"measurement": "Hospitalization for unstable angina, Hazard Ratio (95% CI), adjusted", "setting": "[3]", "value": 0.58}, {"measurement": "Primary efficacy endpoint (MACE-4), Hazard Ratio (95% CI), adjusted", "setting": "[3]", "value": 0.70}, {"measurement": "3-component MACE, Hazard Ratio (95% CI), unadjusted", "setting": "[4]", "value": "0.61 (0.46-0.80)"}, {"measurement": "5-component MACE, Hazard Ratio (95% CI), unadjusted", "setting": "[4]", "value": "0.67 (0.53-0.86)"}, {"measurement": "All-cause mortality, Hazard Ratio (95% CI), unadjusted", "setting": "[4]", "value": "0.69 (0.51-0.92)"}, {"measurement": "Coronary revascularization, Hazard Ratio (95% CI), unadjusted", "setting": "[4]", "value": "0.73 (0.50-1.05)"}, {"measurement": "Death from cardiovascular causes, Hazard Ratio (95% CI), unadjusted", "setting": "[4]", "value": "0.57 (0.38-0.85)"}, {"measurement": "Fatal and non-fatal MI, Hazard Ratio (95% CI), unadjusted", "setting": "[4]", "value": "0.61 (0.38-0.97)"}, {"measurement": "Fatal and non-fatal stroke, Hazard Ratio (95% CI), unadjusted", "setting": "[4]", "value": "0.72 (0.44-1.19)"}, {"measurement": "Hospitalization for unstable angina, Hazard Ratio (95% CI), unadjusted", "setting": "[4]", "value": "0.58 (0.27-1.27)"}, {"measurement": "Primary efficacy endpoint (MACE-4), Hazard Ratio (95% CI), unadjusted", "setting": "[4]", "value": "0.68 (0.53-0.87)"}]}]}
